Experiments:
Purified CYP3A4 = Purified CYP3A4 (Homo sapiens, UniProt P08684, S18F); conditions: for Soret peak / Soret trough: human, 20 µM, pH 7.4
CYP3A4 baculosomes = CYP3A4 baculosomes (Homo sapiens, UniProt P08684); test: Saturation kinetics of metabolism by CYP3A4; assay type: in vitro ADME

SMILES	Binding mode (Purified CYP3A4)	Soret peak (Purified CYP3A4) [nm]	Soret trough (Purified CYP3A4) [nm]	rate of benzylic hydroxylation compared to O-demethylation of compound 5 (CYP3A4 baculosomes; type II binding compounds, relative to aromatic hydroxylation in ring A)	kcat higher than type I binding compounds 3 and 11 (CYP3A4 baculosomes; compared with compounds 3 and 11)	kcat smaller than type I binding compound 2 (CYP3A4 baculosomes; compared with compound 2 of series 1)	kcat larger than type I binding compound 10 (CYP3A4 baculosomes; compared with compound 10 of series 3) [times]
COc1ccc(NC(=O)c2cc(-c3ccccn3)nc3ccccc23)cc1 [Compound 9]	Type I	388	417	–	–	–	–
Cc1ccc(NC(=O)c2cc(-c3ccccc3)nc3ccccc23)cc1 [Compound 4]	Type I	393	417	–	–	–	–
CN(C)c1ccc(NC(=O)c2cc(-c3cnccn3)nc3ccccc23)cc1 [Compound 14]	Type II	425	393	–	–	–	–
O=C(Nc1ccccc1)c1cc(-c2ccncn2)nc2ccccc12 [Compound 19]	Type II	424	390	–	–	–	–
CN(C)c1ccc(NC(=O)c2cc(-c3ccccn3)nc3ccccc23)cc1 [Compound 10]	Type I	386	416	–	–	–	–
O=C(Nc1ccccc1)c1cc(-c2ccccn2)nc2ccccc12 [Compound 11]	Type I	389	418	–	–	–	–
Cc1ccc(NC(=O)c2cc(-c3ccccn3)nc3ccccc23)cc1 [Compound 12]	Type I	391	416	–	–	–	–
CN(C)c1ccc(NC(=O)c2cc(-c3ccccc3)nc3ccccc23)cc1 [Compound 2]	Type I	385	416	–	–	–	–
COc1ccc(NC(=O)c2cc(-c3cnccn3)nc3ccccc23)cc1 [Compound 13]	Type II	423	396	–	–	–	–
CN(C)c1ccc(NC(=O)c2cc(-c3ccncn3)nc3ccccc23)cc1 [Compound 18]	Type II	422	392	–	–	–	–
Cc1ccc(NC(=O)c2cc(-c3ccncn3)nc3ccccc23)cc1 [Compound 20]	Type II	425	390	–	–	–	–
COc1ccc(NC(=O)c2cc(-c3ccncn3)nc3ccccc23)cc1 [Compound 17]	Type II	425	391	–	–	–	–
Cc1ccc(NC(=O)c2cc(-c3cnccn3)nc3ccccc23)cc1 [Compound 16]	Type II	422	391	–	–	–	–
COc1ccc(NC(=O)c2cc(-c3ccncc3)nc3ccccc23)cc1 [Compound 5]	Type II	427	391	–	–	–	–
Cc1ccc(NC(=O)c2cc(-c3ccncc3)nc3ccccc23)cc1 [Compound 8]	Type II	428	392	about three fold faster	–	–	–
O=C(Nc1ccccc1)c1cc(-c2ccncc2)nc2ccccc12 [Compound 7]	Type II	427	394	–	about 1.5 times	–	–
CN(C)c1ccc(NC(=O)c2cc(-c3ccncc3)nc3ccccc23)cc1 [Compound 6]	Type II ^b	427	392	–	–	more than 2 fold	1.2
O=C(Nc1ccccc1)c1cc(-c2cnccn2)nc2ccccc12 [Compound 15]	Type II	427	397	–	–	–	–
O=C(Nc1ccccc1)c1cc(-c2ccccc2)nc2ccccc12 [Compound 3]	Type I	392	417	–	–	–	–

— paper PMC3257383 (Journal of Medicinal Chemistry, 2011)
